{"source": "paper PMC8978638", "about": "(RSC Advances, 2021)", "key": {"[1]": {"test": "DPPH free radical scavenging", "conditions": "% scavenging of DPPH at 1 μg μL^−1 concentration"}, "[2]": {"molecular_target": "human AChE (Homo sapiens, UniProt P22303)", "sequence (P22303 32-614)": "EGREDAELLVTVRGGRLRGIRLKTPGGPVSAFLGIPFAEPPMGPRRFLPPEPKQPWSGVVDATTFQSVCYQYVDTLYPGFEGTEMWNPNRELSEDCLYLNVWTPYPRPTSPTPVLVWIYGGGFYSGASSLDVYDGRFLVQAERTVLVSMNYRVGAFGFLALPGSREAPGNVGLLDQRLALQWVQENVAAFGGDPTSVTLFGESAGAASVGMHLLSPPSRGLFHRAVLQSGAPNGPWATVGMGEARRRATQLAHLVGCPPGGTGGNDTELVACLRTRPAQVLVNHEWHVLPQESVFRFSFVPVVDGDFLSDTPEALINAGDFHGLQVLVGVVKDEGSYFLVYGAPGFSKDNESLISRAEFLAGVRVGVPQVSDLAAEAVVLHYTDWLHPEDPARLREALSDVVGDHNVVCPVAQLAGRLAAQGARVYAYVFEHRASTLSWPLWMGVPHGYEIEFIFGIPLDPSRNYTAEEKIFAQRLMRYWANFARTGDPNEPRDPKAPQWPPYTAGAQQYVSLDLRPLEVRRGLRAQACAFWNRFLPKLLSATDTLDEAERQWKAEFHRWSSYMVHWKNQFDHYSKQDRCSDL", "test": "Enzyme inhibition assay", "assay_type": "biochemical"}, "[3]": {"molecular_target": "human BChE (Homo sapiens, UniProt P06276)", "sequence (P06276 29-602)": "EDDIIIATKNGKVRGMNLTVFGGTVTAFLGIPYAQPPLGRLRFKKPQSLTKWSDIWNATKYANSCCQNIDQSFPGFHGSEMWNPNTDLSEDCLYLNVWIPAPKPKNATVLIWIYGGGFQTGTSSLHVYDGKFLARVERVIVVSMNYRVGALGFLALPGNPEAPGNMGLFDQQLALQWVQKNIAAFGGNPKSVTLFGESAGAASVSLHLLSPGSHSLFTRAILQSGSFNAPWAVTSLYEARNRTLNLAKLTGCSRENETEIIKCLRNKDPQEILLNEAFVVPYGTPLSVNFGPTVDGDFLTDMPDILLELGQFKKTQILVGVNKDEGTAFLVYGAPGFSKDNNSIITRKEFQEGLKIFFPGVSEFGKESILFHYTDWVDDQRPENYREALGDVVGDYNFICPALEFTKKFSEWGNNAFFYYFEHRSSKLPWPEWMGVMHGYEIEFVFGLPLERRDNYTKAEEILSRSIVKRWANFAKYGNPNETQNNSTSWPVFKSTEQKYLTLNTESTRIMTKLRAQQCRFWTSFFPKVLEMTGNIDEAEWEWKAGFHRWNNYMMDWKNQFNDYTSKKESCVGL", "test": "Enzyme inhibition assay", "assay_type": "biochemical"}}, "data": [{"smiles": "O=C1O[C@H]([C@@H](O)CO)C(O)=C1O", "note": "[Ascorbic acid, ascorbic acid, reference compound]", "values": [{"measurement": "Scavenging (%)", "setting": "[1]", "value": 96.39, "unit": "%"}]}, {"smiles": "COC(=O)c1ccccc1NC(=O)c1ccccc1", "note": "[Compound 03, methyl-2-benzamidobenzoate]", "values": [{"measurement": "IC50", "setting": "[2]", "value": "0.25 ± 0.06", "unit": "µM"}, {"measurement": "Scavenging (%)", "setting": "[1]", "value": 37.17, "unit": "%"}, {"measurement": "IC50", "setting": "[3]", "value": "0.21 ± 0.06", "unit": "µM"}]}, {"smiles": "NNC(=O)c1ccccc1NC(=O)c1ccccc1", "note": "[Compound 04, N-(2-(hydrazinecarbonyl)phenyl)benzamide]", "values": [{"measurement": "IC50", "setting": "[2]", "value": "27.65 ± 0.14", "unit": "µM"}, {"measurement": "Scavenging (%)", "setting": "[1]", "value": 95.06, "unit": "%"}, {"measurement": "Scavenging (%)", "setting": "[1]; listed as 4", "value": 95.07, "unit": "%"}, {"measurement": "IC50", "setting": "[3]", "value": "0.17 ± 0.12", "unit": "µM"}]}, {"smiles": "O=C(Nc1ccccc1C(=O)N/N=C/c1ccc(Cl)cc1)c1ccccc1", "note": "[Compound 05, (E)-N-(2-(2-(4-Chlorobenzylidene)hydrazinecarbonyl)phenyl) benzamide]", "values": [{"measurement": "IC50", "setting": "[2]", "value": "1.03 ± 0.12", "unit": "µM"}, {"measurement": "Scavenging (%)", "setting": "[1]", "value": 35.37, "unit": "%"}, {"measurement": "IC50", "setting": "[3]", "value": "1.24 ± 0.12", "unit": "µM"}]}, {"smiles": "O=C(Nc1ccccc1C(=O)N/N=C/c1ccc(Br)cc1)c1ccccc1", "note": "[Compound 06, (E)-N-(2-(2-(4-Bromobenzylidene)hydrazinecarbonyl)phenyl)benzamide]", "values": [{"measurement": "IC50", "setting": "[2]", "value": "0.09 ± 0.05", "unit": "µM"}, {"measurement": "Scavenging (%)", "setting": "[1]", "value": 15.88, "unit": "%"}, {"measurement": "IC50", "setting": "[3]", "value": "0.14 ± 0.05", "unit": "µM"}]}, {"smiles": "CN(C)c1ccc(/C=N/NC(=O)c2ccccc2NC(=O)c2ccccc2)cc1", "note": "[Compound 07, (E)-N-(2-(2-(4-(Dimethylamino)benzylidene)hydrazinecarbonyl)phenyl)benzamide]", "values": [{"measurement": "IC50", "setting": "[2]", "value": "25.2 ± 0.21", "unit": "µM"}, {"measurement": "Scavenging (%)", "setting": "[1]", "value": 43.97, "unit": "%"}]}, {"smiles": "O=C(Nc1ccccc1C(=O)N/N=C/c1ccc([N+](=O)[O-])cc1)c1ccccc1", "note": "[Compound 08, (E)-N-(2-(2-(4-Nitrobenzylidene)hydrazinecarbonyl)phenyl)benzamide]", "values": [{"measurement": "IC50", "setting": "[2]", "value": "14.8 ± 0.29", "unit": "µM"}, {"measurement": "Scavenging (%)", "setting": "[1]", "value": 20.20, "unit": "%"}, {"measurement": "IC50", "setting": "[3]", "value": "0.19 ± 0.12", "unit": "µM"}]}, {"smiles": "CC(C)c1ccc(/C=N/NC(=O)c2ccccc2NC(=O)c2ccccc2)cc1", "note": "[Compound 09, (E)-N-(2-(2-(4-Isopropylbenzylidene)hydrazinecarbonyl)phenyl)benzamide]", "values": [{"measurement": "IC50", "setting": "[2]", "value": "23.1 ± 0.25", "unit": "µM"}, {"measurement": "Scavenging (%)", "setting": "[1]", "value": 33.73, "unit": "%"}]}, {"smiles": "O=C(Nc1ccccc1C(=O)N/N=C/c1ccc(O)cc1O)c1ccccc1", "note": "[Compound 10, (E)-N-(2-(2-(2,4-Dihydroxybenzylidene)hydrazinecarbonyl)phenyl)benzamide]", "values": [{"measurement": "IC50", "setting": "[2]", "value": "18.5 ± 0.19", "unit": "µM"}, {"measurement": "Scavenging (%)", "setting": "[1]", "value": 82.55, "unit": "%"}, {"measurement": "IC50", "setting": "[3]", "value": "2.15 ± 0.26", "unit": "µM"}]}, {"smiles": "O=C(Nc1ccccc1C(=O)N/N=C/c1ccccc1O)c1ccccc1", "note": "[Compound 11, (E)-N-(2-(2-(2-Hydroxybenzylidene)hydrazinecarbonyl)phenyl)benzamide]", "values": [{"measurement": "IC50", "setting": "[2]", "value": "1.14 ± 0.35", "unit": "µM"}, {"measurement": "Scavenging (%)", "setting": "[1]", "value": 67.54, "unit": "%"}, {"measurement": "IC50", "setting": "[3]", "value": "0.12 ± 0.09", "unit": "µM"}]}, {"smiles": "COc1ccc(/C=N/NC(=O)c2ccccc2NC(=O)c2ccccc2)cc1", "note": "[Compound 12, (E)-N-(2-(2-(4-Methoxybenzylidene)hydrazinecarbonyl)phenyl)benzamide]", "values": [{"measurement": "IC50", "setting": "[2]", "value": "20.4 ± 0.23", "unit": "µM"}, {"measurement": "Scavenging (%)", "setting": "[1]", "value": 30.09, "unit": "%"}, {"measurement": "IC50", "setting": "[3]", "value": "18.34 ± 0.14", "unit": "µM"}]}, {"smiles": "O=C(Nc1ccccc1C(=O)N/N=C/c1ccccc1)c1ccccc1", "note": "[Compound 13, (E)-N-(2-(2-Benzylidenehydrazinecarbonyl)phenyl)benzamide]", "values": [{"measurement": "IC50", "setting": "[2]", "value": "0.11 ± 0.03", "unit": "µM"}, {"measurement": "Scavenging (%)", "setting": "[1]", "value": 30.21, "unit": "%"}, {"measurement": "IC50", "setting": "[3]", "value": "0.1 ± 0.06", "unit": "µM"}]}]}
